Reference: patent US11542259B2, “Compounds for the treatment of kinase-dependent disorders” (Exelixis, Inc., priority 2018, dated 2023)

Assays:
Assay type in all cases: cell-based
[1] = target: AXL (Homo sapiens (Human), UniProt P30530); experiment: AXL autophosphorylation ELISA in A-172 cells; conditions: cellular, Gas6 stimulated
Summary of the method: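 Serum-starved (24 h) A-172 glioblastoma cells pretreated 1 h with compounds (8-point curve, 0.3% DMSO), then stimulated 15 min with 1 μg/mL Gas6. Lysate phospho-AXL measured by sandwich ELISA against a phospho-AXL standard; IC50 from 4-parameter logistic fit between DMSO and reference-inhibitor controls.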

[2] = target: Mer (Homo sapiens (Human), UniProt Q12866); experiment: Mer autophosphorylation ELISA in transient transfected 293A cells; conditions: cellular, MERTK transfected 293A cells
Summary of the method: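 293A cells transiently transfected with human MERTK DNA, then treated 1 h with 8-point compound dilutions in serum-free medium (0.3% DMSO). Phospho-Mer in lysates quantified by sandwich ELISA against phospho-Mer standard; normalised to DMSO (100%) and reference inhibitor (0%), IC50 from 4-parameter logistic fit.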

[3] = target: Met (Homo sapiens (Human), UniProt P08581); experiment: Met autophosphorylation ELISA in PC-3 cells; conditions: cellular, HGF stimulated, read-out: c-Met IC50
Summary of the method: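 Phospho-Met (panTyr) sandwich ELISA on lysates of PC-3 cells given 100 ng/mL HGF for 10 min after 1 h compound exposure (8-point curve, 0.3% DMSO) following 3 h serum starvation. Normalised to HGF-stimulated DMSO and reference-inhibitor wells; 4-parameter logistic IC50.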

[4] = target: KDR (Homo sapiens (Human), UniProt P35968); experiment: KDR autophosphorylation ELISA in HUVEC cells; conditions: cellular, VEGF165 stimulated
Summary of the method: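 Compound pretreatment (1 h, 0.3% DMSO) of serum-starved HUVEC preceded a 5 min pulse of 100 ng/mL VEGF165, after which cells were lysed. Phospho-KDR was quantified by ELISA relative to stimulated and unstimulated controls.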

Measured: IC50

Chain of KDR (P35968 20-1356): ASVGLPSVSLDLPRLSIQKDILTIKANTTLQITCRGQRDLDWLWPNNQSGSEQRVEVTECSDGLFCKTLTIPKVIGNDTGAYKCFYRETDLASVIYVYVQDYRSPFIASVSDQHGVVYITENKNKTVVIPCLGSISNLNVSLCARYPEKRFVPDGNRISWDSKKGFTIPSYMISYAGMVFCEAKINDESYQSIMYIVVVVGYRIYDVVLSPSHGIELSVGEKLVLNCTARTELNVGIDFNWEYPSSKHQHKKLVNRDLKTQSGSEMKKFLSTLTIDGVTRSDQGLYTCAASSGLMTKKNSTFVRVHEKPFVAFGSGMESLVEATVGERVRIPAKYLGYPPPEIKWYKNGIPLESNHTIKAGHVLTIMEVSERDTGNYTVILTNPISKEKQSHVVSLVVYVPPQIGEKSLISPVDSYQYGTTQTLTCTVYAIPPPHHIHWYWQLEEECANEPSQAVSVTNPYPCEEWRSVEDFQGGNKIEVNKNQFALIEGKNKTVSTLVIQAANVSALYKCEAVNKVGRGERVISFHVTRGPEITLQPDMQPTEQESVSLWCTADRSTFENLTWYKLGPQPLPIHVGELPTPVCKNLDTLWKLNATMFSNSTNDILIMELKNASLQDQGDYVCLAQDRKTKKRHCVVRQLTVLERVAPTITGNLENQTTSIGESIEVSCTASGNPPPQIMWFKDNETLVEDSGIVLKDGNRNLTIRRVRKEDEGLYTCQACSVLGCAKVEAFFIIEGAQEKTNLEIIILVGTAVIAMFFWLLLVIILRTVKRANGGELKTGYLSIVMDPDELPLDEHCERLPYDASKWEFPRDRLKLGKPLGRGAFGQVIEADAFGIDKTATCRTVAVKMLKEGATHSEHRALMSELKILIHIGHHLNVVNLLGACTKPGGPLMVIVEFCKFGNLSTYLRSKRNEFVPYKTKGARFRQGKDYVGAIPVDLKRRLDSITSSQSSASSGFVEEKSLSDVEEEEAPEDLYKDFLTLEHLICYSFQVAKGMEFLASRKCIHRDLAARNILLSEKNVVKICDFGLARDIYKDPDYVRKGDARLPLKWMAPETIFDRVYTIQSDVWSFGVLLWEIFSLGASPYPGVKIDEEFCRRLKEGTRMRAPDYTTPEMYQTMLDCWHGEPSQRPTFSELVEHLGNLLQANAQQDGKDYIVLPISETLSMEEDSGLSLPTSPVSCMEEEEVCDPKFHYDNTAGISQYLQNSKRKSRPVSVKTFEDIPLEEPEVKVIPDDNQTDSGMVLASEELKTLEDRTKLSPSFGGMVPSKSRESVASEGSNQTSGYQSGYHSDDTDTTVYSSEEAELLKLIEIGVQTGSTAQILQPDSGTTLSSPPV
Chain of Met (P08581 25-1390): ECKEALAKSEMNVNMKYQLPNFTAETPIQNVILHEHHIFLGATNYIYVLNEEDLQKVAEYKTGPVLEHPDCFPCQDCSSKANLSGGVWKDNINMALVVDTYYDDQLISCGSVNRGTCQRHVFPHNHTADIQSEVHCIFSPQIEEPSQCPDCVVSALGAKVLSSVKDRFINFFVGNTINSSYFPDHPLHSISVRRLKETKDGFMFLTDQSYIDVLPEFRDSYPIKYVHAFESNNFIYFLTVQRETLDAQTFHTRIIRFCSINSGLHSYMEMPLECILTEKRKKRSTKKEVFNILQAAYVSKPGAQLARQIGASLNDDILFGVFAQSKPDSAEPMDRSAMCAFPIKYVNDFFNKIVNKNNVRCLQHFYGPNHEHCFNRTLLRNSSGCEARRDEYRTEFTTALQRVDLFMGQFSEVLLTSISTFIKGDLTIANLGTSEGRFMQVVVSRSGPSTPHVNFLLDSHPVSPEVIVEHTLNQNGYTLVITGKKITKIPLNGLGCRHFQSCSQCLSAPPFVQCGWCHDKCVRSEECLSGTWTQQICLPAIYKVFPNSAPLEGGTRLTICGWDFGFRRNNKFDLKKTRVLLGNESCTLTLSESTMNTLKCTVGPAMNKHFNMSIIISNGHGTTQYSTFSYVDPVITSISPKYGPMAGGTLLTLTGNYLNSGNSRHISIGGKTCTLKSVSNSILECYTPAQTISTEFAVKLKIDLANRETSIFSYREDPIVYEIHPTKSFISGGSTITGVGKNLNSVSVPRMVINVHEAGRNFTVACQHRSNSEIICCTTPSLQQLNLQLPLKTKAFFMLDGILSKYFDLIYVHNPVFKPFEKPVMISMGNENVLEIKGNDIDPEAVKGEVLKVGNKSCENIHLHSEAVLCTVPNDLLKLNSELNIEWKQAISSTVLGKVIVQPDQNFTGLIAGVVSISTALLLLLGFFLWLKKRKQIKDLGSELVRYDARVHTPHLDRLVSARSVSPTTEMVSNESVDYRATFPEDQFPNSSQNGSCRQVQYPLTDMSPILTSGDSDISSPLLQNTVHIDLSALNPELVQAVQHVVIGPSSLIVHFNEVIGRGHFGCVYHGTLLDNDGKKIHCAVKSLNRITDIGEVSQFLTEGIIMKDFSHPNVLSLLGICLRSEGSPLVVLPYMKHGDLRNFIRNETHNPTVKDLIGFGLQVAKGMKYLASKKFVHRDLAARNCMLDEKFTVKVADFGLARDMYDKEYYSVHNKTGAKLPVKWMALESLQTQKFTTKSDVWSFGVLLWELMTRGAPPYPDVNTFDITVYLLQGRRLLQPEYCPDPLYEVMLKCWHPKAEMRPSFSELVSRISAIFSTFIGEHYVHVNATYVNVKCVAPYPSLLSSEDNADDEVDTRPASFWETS
Chain of Mer (Q12866 21-999): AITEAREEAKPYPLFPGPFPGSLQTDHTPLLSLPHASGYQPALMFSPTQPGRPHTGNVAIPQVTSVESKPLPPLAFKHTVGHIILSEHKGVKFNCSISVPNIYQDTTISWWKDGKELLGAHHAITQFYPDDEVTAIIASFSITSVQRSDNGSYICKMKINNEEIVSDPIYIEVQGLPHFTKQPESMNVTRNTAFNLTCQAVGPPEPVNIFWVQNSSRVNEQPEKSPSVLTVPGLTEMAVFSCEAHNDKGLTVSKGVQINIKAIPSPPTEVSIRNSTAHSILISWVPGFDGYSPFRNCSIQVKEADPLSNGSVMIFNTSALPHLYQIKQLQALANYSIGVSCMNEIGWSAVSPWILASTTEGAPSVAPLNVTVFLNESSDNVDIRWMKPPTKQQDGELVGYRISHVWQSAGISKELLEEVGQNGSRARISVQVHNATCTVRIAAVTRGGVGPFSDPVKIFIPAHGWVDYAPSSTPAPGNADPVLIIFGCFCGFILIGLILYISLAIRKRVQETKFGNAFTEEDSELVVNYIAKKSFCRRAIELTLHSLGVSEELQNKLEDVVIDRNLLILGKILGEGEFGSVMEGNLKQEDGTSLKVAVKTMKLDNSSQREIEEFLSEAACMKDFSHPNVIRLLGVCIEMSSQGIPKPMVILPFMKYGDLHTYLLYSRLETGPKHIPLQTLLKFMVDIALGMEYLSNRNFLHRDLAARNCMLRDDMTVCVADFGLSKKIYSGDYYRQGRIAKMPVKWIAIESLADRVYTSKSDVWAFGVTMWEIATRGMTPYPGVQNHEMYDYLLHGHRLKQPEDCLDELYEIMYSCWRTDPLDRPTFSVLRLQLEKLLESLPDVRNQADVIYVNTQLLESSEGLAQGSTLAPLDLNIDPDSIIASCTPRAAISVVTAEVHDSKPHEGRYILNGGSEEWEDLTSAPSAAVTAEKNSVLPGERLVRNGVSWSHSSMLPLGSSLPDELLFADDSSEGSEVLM
Chain of AXL (P30530 26-894): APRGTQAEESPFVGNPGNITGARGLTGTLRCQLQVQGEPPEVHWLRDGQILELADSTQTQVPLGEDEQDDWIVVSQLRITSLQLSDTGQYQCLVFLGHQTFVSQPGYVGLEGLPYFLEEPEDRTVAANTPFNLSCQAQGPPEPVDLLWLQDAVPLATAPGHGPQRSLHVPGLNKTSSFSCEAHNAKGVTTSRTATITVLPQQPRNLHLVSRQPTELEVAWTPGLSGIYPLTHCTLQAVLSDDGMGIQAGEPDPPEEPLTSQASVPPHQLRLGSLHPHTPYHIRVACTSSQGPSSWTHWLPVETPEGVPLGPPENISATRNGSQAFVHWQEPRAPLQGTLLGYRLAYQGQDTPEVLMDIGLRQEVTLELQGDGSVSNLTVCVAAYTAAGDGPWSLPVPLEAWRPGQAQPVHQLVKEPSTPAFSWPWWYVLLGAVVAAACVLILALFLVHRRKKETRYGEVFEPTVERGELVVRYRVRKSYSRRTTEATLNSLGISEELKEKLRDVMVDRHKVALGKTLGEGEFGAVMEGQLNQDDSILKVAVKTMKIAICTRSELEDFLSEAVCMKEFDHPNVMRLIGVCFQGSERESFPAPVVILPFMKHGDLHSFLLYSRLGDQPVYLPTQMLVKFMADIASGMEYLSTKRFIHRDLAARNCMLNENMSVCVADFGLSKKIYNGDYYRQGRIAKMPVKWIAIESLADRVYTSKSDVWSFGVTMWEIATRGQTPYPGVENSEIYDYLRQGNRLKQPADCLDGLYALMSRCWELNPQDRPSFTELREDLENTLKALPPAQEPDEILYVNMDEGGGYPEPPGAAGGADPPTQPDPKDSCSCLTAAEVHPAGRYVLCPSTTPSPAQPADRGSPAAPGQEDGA

O=C(Nc1ccc(F)cc1)C1(C(=O)Nc2ccc(Oc3ccnc4cc(OCCO)c(-c5ncco5)cc34)cc2)CC1 [Compound 50, 1-N′-(4-Fluorophenyl)-1-N-[4-[7-(2-hydroxyethoxy)-6-(1,3-oxazol-2-yl)quinolin-4-yl]oxyphenyl]cyclopropane-1,1-dicarboxamide]
≤ 10 nM: all assays above
